Results reported in article PMC11219871, “Epigenetic-based differentiation therapy for Acute Myeloid Leukemia” (Nature Communications, 2024).

What was measured:
Test in all cases: Epigenetic panel (BPS Bioscience)
Type in all cases: biochemical
[1] = target: T1, DNMT3B/3L (Homo sapiens, UniProt Q9UBC3)
T1 construct: purchased BPS Bioscience (contracted assay service)
Description: (§1) The selectivity of CM-444 and CM-1758 against other epigenetic targets, including histone demethylase (JMJD2A, JMJD2B, JMJD2C, JMJD2D, JMJD2E, JMJD3, JMJD1A, LSD1, Jarid1A, Jarid1B, Jarid1C, FBXL10, FBXL11, JHDM1D, JMJD1B, PHF8, LSD2 and UTX); histone acetyltransferases (GCN5, P300); histone methyltransferases (G9a, GLP, MLL1, SET7/9, SUV39H1, SUV39H2, PRMT1, PRMT3, PRMT4, PRMT5, PRMT6, PRMT8, PRMT9, NSD1, NSD2, EZH1, EZH2, SETDB1, SETD2, SET8, SUV4-20H1, SMYD2, SMYD3, DOT1L, EZH2 (A677G), EZH2 (A677G), EZH2 (A738T), EZH2 (Y641S), EZH2 (P132S), EZH2 (Y641C), EZH2 (Y641F), EZH2 (Y641H), EZH2 (Y641N)); bromodomains (ATAD2B, ATAD2A, BRD1, BRD9, BPTF/FALZ, CeCR2, BRPF3, BRD3 (BD1 + BD2), BAZ2B, WDR9, TAF1 (BD2), TAF1L (BD2), TAF1L (BD1 + BD2), BRD2 (BD1), BRD2 (BD2), BRD2 (BD1 + BD2), BRD3 (BD1), BRD3 (BD2), BRD4 (BD1), BRD4 (BD2), BRD4 (BD1 + BD2), BRDT (BD1), BRDT (BD1 + BD2), CREBBP, SMARCA2A, SMARCA4/BRG1); DNA methyltranferases (DNMT1, DNMT3A/3L and DNMT3B/3L), and sirtuin histone deacetylases (SIRT1, SIRT2, SIRT3, SIRT5 and SIRT6), were determined by BPS Bioscience (http://www.bpsbioscience.com/index.ph). Binding experiments were performed in duplicate at a concentration of 10 μM.

[2] = target: T2, DOT1L (Homo sapiens, UniProt Q8TEK3)
T2 construct: purchased BPS Bioscience; Eurofins (HDAC4, 5, 7-11)
Description: as §1

[3] = target: T3, EZH2 (A677G) (Homo sapiens, UniProt Q15910, A677G)
T3 construct: purchased BPS Bioscience; Eurofins (HDAC4, 5, 7-11)
Description: as §1

[4] = target: T4, EZH2 (A738T) (Homo sapiens, UniProt Q15910)
T4 construct: purchased BPS Bioscience; Eurofins (HDAC4, 5, 7-11)
Description: as §1

[5] = target: T5, EZH2 (Homo sapiens, UniProt Q15910)
T5 construct: purchased BPS Bioscience; Eurofins (HDAC4, 5, 7-11)
Description: as §1

[6] = target: T6, EZH2 (P132S) (Homo sapiens, UniProt Q15910, P132S)
T6 construct: purchased BPS Bioscience; Eurofins (HDAC4, 5, 7-11)
Description: as §1

[7] = target: T7, EZH2 (Y641H) (Homo sapiens, UniProt Q15910, Y641H)
T7 construct: purchased BPS Bioscience; Eurofins (HDAC4, 5, 7-11)
Description: as §1

[8] = target: T8, EZH2 (Y641S) (Homo sapiens, UniProt Q15910, Y641S)
T8 construct: purchased BPS Bioscience; Eurofins (HDAC4, 5, 7-11)
Description: as §1

[9] = target: T9, FBXL11 (Homo sapiens, UniProt Q9Y2K7)
T9 construct: purchased BPS Bioscience; Eurofins (HDAC4, 5, 7-11)
Description: as §1

[10] = target: T10, JMJD1A (Homo sapiens, UniProt Q9Y4C1)
T10 construct: purchased BPS Bioscience; Eurofins (HDAC4, 5, 7-11)
Description: as §1

[11] = target: T11, JMJD2A (Homo sapiens, UniProt O75164)
T11 construct: purchased BPS Bioscience; Eurofins (HDAC4, 5, 7-11)
Description: as §1

[12] = target: T12, JMJD2B (Homo sapiens, UniProt O94953)
T12 construct: purchased BPS Bioscience; Eurofins (HDAC4, 5, 7-11)
Description: as §1

[13] = target: T13, JMJD2C (Homo sapiens, UniProt Q9H3R0)
T13 construct: purchased BPS Bioscience; Eurofins (HDAC4, 5, 7-11)
Description: as §1

[14] = target: T14, JMJD2E (Homo sapiens, UniProt B2RXH2)
T14 construct: purchased BPS Bioscience; Eurofins (HDAC4, 5, 7-11)
Description: as §1

[15] = target: T15, JMJD3 (Homo sapiens, UniProt O15054)
T15 construct: purchased BPS Bioscience; Eurofins (HDAC4, 5, 7-11)
Description: as §1

[16] = target: T16, Jarid1C (Homo sapiens, UniProt P41229)
T16 construct: purchased BPS Bioscience; Eurofins (HDAC4, 5, 7-11)
Description: as §1

[17] = target: T17, NSD2 (Homo sapiens, UniProt O96028)
T17 construct: purchased BPS Bioscience; Eurofins (HDAC4, 5, 7-11)
Description: as §1

[18] = target: T18, P300 (Homo sapiens, UniProt Q09472)
T18 construct: purchased BPS Bioscience; Eurofins (HDAC4, 5, 7-11)
Description: as §1

[19] = target: T19, PRMT1 (Homo sapiens, UniProt Q99873)
T19 construct: purchased BPS Bioscience; Eurofins (HDAC4, 5, 7-11)
Description: as §1

[20] = target: T20, PRMT3 (Homo sapiens, UniProt O60678)
T20 construct: purchased BPS Bioscience; Eurofins (HDAC4, 5, 7-11)
Description: as §1

[21] = target: T21, PRMT6 (Homo sapiens, UniProt Q96LA8)
T21 construct: purchased BPS Bioscience; Eurofins (HDAC4, 5, 7-11)
Description: as §1

[22] = target: T22, PRMT8 (Homo sapiens, UniProt Q9NR22)
T22 construct: purchased BPS Bioscience; Eurofins (HDAC4, 5, 7-11)
Description: as §1

[23] = target: T23, SIRT2 (Homo sapiens, UniProt Q8IXJ6)
T23 construct: purchased BPS Bioscience; Eurofins (HDAC4, 5, 7-11)
Description: as §1

[24] = target: T24, SIRT3 (Homo sapiens, UniProt Q9NTG7)
T24 construct: purchased BPS Bioscience; Eurofins (HDAC4, 5, 7-11)
Description: as §1

[25] = target: T25, SIRT5 (Homo sapiens, UniProt Q9NXA8)
T25 construct: purchased BPS Bioscience; Eurofins (HDAC4, 5, 7-11)
Description: as §1

[26] = target: T26, SIRT6 (Homo sapiens, UniProt Q8N6T7)
T26 construct: purchased BPS Bioscience; Eurofins (HDAC4, 5, 7-11)
Description: as §1

[27] = target: T27, SUV39H1 (Homo sapiens, UniProt O43463)
T27 construct: purchased BPS Bioscience; Eurofins (HDAC4, 5, 7-11)
Description: as §1

[28] = target: T28, UTX (Homo sapiens, UniProt O15550)
T28 construct: purchased BPS Bioscience (contracted assay service)
Description: as §1

T28 sequence (O15550 whole entry): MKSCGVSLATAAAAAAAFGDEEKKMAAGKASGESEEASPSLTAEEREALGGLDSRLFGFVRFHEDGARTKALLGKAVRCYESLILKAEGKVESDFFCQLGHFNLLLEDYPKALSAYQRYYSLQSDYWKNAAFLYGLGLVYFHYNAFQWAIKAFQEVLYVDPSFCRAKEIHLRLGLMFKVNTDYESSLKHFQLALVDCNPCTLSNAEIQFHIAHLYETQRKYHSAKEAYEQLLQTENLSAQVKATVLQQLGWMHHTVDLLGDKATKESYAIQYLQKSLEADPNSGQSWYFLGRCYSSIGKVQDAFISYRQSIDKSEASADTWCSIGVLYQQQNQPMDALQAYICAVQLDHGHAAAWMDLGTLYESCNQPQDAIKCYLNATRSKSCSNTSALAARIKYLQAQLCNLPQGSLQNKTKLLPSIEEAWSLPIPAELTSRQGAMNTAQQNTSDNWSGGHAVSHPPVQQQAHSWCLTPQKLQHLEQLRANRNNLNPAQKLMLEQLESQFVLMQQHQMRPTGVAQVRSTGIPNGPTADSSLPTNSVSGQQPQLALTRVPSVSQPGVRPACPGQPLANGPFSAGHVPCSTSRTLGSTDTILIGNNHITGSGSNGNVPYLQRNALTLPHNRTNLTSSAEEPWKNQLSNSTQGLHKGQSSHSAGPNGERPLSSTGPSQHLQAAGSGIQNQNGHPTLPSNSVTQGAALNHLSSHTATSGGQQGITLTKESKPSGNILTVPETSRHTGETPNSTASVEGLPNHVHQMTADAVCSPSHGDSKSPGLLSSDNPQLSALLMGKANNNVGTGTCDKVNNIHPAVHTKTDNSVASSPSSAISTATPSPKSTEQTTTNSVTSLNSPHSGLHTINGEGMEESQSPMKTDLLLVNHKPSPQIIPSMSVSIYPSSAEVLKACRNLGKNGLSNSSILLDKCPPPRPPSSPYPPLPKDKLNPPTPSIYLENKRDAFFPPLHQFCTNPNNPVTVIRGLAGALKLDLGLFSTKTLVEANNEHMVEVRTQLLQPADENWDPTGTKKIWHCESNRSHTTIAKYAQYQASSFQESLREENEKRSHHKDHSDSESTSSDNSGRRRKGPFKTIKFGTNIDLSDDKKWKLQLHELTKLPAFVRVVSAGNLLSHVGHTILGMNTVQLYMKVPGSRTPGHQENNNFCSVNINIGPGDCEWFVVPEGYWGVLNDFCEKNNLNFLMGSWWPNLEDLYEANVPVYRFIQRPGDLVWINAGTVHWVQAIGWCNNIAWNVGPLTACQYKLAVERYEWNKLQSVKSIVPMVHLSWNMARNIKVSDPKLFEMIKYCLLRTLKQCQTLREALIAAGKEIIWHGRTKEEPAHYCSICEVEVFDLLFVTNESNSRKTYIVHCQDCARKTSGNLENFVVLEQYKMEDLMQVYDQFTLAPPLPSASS
T22 sequence (Q9NR22 whole entry): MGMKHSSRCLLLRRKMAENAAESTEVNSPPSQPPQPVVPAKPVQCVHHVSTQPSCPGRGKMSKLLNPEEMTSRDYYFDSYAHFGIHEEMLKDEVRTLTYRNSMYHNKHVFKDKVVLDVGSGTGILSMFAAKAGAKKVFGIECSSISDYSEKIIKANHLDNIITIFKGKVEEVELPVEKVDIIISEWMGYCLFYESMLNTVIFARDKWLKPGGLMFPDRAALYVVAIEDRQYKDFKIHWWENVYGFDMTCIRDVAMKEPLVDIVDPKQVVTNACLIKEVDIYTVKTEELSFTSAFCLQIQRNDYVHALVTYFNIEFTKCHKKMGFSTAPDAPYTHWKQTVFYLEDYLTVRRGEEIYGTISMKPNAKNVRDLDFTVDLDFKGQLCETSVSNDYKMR
T16 sequence (P41229 whole entry): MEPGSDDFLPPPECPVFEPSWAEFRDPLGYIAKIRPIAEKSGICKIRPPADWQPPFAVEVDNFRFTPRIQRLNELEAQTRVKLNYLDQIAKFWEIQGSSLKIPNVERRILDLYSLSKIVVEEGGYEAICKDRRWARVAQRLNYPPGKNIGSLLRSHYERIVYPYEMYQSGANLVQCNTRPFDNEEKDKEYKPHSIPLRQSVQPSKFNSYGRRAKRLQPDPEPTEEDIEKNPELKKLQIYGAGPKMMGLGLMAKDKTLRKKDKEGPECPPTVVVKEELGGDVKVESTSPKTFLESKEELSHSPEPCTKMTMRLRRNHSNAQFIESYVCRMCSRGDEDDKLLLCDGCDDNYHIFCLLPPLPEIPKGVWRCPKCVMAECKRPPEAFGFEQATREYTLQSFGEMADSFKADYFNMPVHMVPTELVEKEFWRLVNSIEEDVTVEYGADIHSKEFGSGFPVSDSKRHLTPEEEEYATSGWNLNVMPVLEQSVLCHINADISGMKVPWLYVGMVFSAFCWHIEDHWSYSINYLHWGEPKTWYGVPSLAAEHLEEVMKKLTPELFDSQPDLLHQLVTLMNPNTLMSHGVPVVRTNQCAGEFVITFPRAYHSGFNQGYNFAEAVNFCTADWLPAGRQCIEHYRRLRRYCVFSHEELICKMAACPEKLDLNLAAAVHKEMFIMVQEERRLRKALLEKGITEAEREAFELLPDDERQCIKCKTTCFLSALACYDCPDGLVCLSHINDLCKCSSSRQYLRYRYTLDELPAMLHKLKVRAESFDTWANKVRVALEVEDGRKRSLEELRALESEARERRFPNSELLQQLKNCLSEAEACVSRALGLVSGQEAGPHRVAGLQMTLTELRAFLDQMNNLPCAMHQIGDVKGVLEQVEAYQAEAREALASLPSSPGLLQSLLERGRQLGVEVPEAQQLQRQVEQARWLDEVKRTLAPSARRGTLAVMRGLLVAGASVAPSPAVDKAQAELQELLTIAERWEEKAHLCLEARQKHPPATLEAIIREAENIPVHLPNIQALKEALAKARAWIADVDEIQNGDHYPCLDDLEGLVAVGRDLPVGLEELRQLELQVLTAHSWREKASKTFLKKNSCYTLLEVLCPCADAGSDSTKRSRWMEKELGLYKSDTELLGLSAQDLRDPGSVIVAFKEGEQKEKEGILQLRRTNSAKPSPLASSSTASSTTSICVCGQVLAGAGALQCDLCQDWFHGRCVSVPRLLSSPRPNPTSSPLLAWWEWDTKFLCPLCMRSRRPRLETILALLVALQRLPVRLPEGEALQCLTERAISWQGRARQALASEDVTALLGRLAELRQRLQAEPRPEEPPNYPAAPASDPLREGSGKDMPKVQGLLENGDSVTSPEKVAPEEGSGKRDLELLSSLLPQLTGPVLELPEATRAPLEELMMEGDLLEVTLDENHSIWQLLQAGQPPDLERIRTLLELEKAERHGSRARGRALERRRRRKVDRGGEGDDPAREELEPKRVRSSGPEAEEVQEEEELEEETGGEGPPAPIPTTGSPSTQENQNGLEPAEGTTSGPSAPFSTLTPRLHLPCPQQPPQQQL
T17 sequence (O96028 whole entry): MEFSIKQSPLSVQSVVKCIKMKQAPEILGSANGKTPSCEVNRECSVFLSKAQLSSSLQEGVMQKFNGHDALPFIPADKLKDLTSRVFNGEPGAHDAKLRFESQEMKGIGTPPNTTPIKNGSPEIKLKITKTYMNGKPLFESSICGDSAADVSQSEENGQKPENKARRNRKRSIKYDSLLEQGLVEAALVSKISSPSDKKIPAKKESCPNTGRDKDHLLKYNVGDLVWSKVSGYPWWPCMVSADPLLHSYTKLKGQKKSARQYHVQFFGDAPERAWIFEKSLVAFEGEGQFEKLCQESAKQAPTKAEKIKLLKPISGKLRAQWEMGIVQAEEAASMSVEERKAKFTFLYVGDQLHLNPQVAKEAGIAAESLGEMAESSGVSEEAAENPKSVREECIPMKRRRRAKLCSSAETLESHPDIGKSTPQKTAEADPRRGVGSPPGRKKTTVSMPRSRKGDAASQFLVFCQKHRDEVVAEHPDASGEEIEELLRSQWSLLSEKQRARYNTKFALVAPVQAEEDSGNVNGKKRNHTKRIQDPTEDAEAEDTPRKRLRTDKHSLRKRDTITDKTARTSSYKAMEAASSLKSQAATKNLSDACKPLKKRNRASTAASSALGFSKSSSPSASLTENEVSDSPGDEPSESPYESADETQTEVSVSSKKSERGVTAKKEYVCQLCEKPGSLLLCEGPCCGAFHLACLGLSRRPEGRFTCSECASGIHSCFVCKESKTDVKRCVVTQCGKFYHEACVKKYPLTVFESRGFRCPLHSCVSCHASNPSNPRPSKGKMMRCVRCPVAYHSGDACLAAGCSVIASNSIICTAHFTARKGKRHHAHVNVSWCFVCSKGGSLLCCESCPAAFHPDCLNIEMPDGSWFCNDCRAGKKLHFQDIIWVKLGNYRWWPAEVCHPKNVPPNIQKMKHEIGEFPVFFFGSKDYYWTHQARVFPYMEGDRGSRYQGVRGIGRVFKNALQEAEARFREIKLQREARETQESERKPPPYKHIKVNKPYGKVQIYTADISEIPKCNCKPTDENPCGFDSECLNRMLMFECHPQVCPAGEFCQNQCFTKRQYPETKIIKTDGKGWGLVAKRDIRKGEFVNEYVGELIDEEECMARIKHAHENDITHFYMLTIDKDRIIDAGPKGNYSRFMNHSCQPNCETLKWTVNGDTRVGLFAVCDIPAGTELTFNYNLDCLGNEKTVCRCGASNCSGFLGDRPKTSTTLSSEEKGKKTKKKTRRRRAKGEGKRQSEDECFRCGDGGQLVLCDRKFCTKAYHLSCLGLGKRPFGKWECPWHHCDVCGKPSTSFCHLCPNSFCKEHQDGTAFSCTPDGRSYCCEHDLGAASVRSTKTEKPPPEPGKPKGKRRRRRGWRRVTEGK
T26 sequence (Q8N6T7 whole entry): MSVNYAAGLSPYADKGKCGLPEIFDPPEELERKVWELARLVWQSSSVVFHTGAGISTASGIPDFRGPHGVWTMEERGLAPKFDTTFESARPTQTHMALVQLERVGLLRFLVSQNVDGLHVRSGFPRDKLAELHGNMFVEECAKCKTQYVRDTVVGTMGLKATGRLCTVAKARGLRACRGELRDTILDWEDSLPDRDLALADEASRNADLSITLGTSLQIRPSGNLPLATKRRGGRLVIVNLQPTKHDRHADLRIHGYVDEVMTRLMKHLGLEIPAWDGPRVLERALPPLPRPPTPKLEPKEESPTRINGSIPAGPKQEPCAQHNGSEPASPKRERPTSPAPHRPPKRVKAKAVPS

SMILES: COc1cc2nc(-c3ccc(C)o3)cc(NCC3CCN(c4ncc(C(=O)NO)cn4)CC3)c2cc1OC [CM-444, 2-[4-[[[6,7-dimethoxy-2-(5-methyl-2-furyl)-4-quinolyl]amino]methyl]-1-piperidyl]pyrimidine-5-carbohydroxamic acid]
- IC50 [1]: 2300 nM
- inhibition at 10 µM [1]: 68%
- inhibition at 10 µM [2]: 0%
- inhibition at 10 µM [3]: 0%
- inhibition at 10 µM [4]: 5%
- inhibition at 10 µM [5]: 0%
- inhibition at 10 µM [6]: 0%
- inhibition at 10 µM [7]: 0%
- inhibition at 10 µM [8]: 4%
- inhibition at 10 µM [9]: 33%
- inhibition at 10 µM [10]: 3%
- inhibition at 10 µM [11]: 21%
- inhibition at 10 µM [12]: 1%
- inhibition at 10 µM [13]: 4%
- inhibition at 10 µM [14]: 5%
- inhibition at 10 µM [15]: 21%
- inhibition at 10 µM [16]: 2%
- inhibition at 10 µM [17]: 35%
- inhibition at 10 µM [18]: 10%
- inhibition at 10 µM [19]: 0%
- inhibition at 10 µM [20]: 0%
- inhibition at 10 µM [21]: 0%
- inhibition at 10 µM [22]: 0%
- inhibition at 10 µM [23]: 14%
- inhibition at 10 µM [24]: 0%
- inhibition at 10 µM [25]: 7%
- inhibition at 10 µM [26]: 15%
- inhibition at 10 µM [27]: 1%
- IC50 [28]: 1500 nM
- inhibition at 10 µM [28]: 95%

SMILES: COc1cc2nc(-c3cc(C)oc3C)cc(NCC3CCN(c4ncc(C(=O)NO)cn4)CC3)c2cc1OC [CM-1758, 2-[4-[[[2-(2,5-dimethyl-3-furyl)-6,7-dimethoxy-4-quinolyl]amino]methyl] -1-piperidyl]pyrimidine-5-carbohydroxamic acid]
- inhibition at 10 µM [1]: 20%
- inhibition at 10 µM [2]: 0%
- inhibition at 10 µM [3]: 5%
- inhibition at 10 µM [4]: 5%
- inhibition at 10 µM [5]: 0%
- inhibition at 10 µM [6]: 0%
- inhibition at 10 µM [7]: 0%
- inhibition at 10 µM [8]: 24%
- inhibition at 10 µM [9]: 2%
- inhibition at 10 µM [10]: 12%
- inhibition at 10 µM [11]: 20%
- inhibition at 10 µM [12]: 10%
- inhibition at 10 µM [13]: 9%
- inhibition at 10 µM [14]: 1%
- inhibition at 10 µM [15]: 20%
- inhibition at 10 µM [16]: 26%
- inhibition at 10 µM [17]: 16%
- inhibition at 10 µM [18]: 0%
- inhibition at 10 µM [19]: 0%
- inhibition at 10 µM [20]: 0%
- inhibition at 10 µM [21]: 0%
- inhibition at 10 µM [22]: 0%
- inhibition at 10 µM [23]: 0%
- inhibition at 10 µM [24]: 9%
- inhibition at 10 µM [25]: 2%
- inhibition at 10 µM [26]: 4%
- inhibition at 10 µM [27]: 1%
- IC50 [28]: 2200 nM
- inhibition at 10 µM [28]: 91%
